Patent US20240325398A1, “COMBINATION THERAPIES” (Infinity Pharmaceuticals, Inc., priority 2014, published 2024)

Tests used:
[1] = test system: Jeko-1; assay: Combination study, ATPLite 72 h, dose matrix (Synergy Score, CI50); details: combination with Compound 1
Method: (§1) Cells are thawed from a liquid nitrogen preserved state. Once cells have been expanded and divide at their expected doubling times, screening begins. Cells are seeded in growth media in either black 1536-well or 384-well tissue culture treated plates. Cells are then equilibrated in assay plates via centrifugation and placed in incubators attached to the Dosing Modules at 37° C. for 24 hours before treatment. […] These Tzero (To) plates are read using ultra-sensitive luminescence on Envision plate readers (Perkin Elmer). Treated assay plates are incubated with compound for 72 hours. After 72 hours, plates are developed for endpoint analysis using ATPLite. All data points are collected via automated processes, quality controlled and analyzed using Zalicus software.
(§2) where T is treated cell count and V is untreated (vehicle) cell count (at 72 hours). I ranges from 0% (when T=V) to 100% (when T=0). […] The measure of effect in the experiment can be the inhibition of cellular response relative to the untreated level (vehicle alone). […] The inhibition ranges from 0% at the untreated level to 100% when T=0. Inhibition levels are negative for agents that actually increase levels. Other effect measures, such as an activity ratio r=T/V may be more appropriate for some assays. When activity ratios (e.g, fold increase over stimulated control) are being used, the effect can be measured using an induction 1=ln(T/V). With this definition, all effect expressions are the same as for inhibition.
(§3) Growth Inhibition (GI) is used as a measure of cell viability. […] A GI reading of 100% represents complete growth inhibition—T72 compound-treated and T0 vehicle signals are matched. […] A GI reading of 200% represents complete death of all cells in the culture well. Compounds reaching an activity plateau of GI 200% are considered cytotoxic. GI is calculated by applying the following test and equation:
(§4) Combination analysis data were collected in a 6×6 dose matrix. Synergy is calculated by comparing a combination's response to those of its single compound, against the drug-with-itself dose-additive reference model. Deviations from dose additivity may be assessed visually on an isobologram or numerically with a Combination Index (CI). […] Additive effect is CI=1.0. […] Antagonistic effect is CI>1.0.
(§5) To measure combination effects in excess of Loewe additivity, a scalar measure to characterize the strength of synergistic interaction termed the Synergy Score is devised. The Synergy Score is calculated as:
(§6) The fractional inhibition for each component agent and combination point in the matrix is calculated relative to the median of all vehicle-treated control wells. The Synergy Score equation integrates the experimentally-observed activity volume at each point in the matrix in excess of a model surface numerically derived from the activity of the component agents using the Loewe model for additivity. Additional terms in the Synergy Score equation (above) are used to normalize for various dilution factors used for individual agents and to allow for comparison of synergy scores across an entire experiment. The inclusion of positive inhibition gating or an Idata multiplier removes noise near the zero effect level, and biases results for synergistic interactions at that occur at high activity levels.
(§7) Loewe Volume (Loewe Vol) is used to assess the overall magnitude of the combination interaction in excess of the Loewe additivity model. Loewe Volume is particularly useful when distinguishing synergistic increases in a phenotypic activity (positive Loewe Volume) versus synergistic antagonisms (negative Loewe Volume). […] This model defines additivity as a non-synergistic combination interaction where the combination dose matrix surface should be indistinguishable from either drug crossed with itself.

[2] = test system: U-2932; assay: as above; details: combination with Compound 1, 72 h
Method: as §1, §2, §3, §4, §5, §6
Loewe Volume (Loewe Vol) is used to assess the overall magnitude of the combination interaction in excess of the Loewe additivity model. Loewe Volume is particularly useful when distinguishing synergistic increases in a phenotypic activity (positive Loewe Volume) versus synergistic antagonisms (negative Loewe Volume). […] This model defines additivity as a non-synergistic combination interaction where the combination dose matrix surface should be indistinguishable from either drug crossed with itself. The calculation for Loewe additivity is:

[3] = test system: DOHH-2; assay: as above; details: combination with Compound 1, 72 h
[4] = test system: Mino; assay: as above; details: combination with Compound 1
[5] = test system: TMD8; assay: as above; details: combination with Compound 1; TMD8; 72 h
[6] = test system: HH; assay: as above; format: cell-based; details: combination with Compound 1
Method: The method is described as follows.
Additive effect is CI=1.0. […] Antagonistic effect is CI>1.0.
The Synergy Score is calculated as: […]

[7] = test system: Farage; assay: as above; details: combination with Compound 1; Farage; 72 h
[8] = test system: OMP-2; assay: as above; details: combination with Compound 1; OPM-2
[9] = as above; details: combination with Compound 1; OPM-2
[10] = test system: OCI-Ly7; assay: as above; details: combination with Compound 1, 72 h
[11] = test system: GRANTA-519; assay: as above; details: combination with Compound 1
[12] = test system: KARPAS-422; assay: as above; details: combination with Compound 1, 72 h
[13] = test system: NCI-H929; assay: as above; details: combination with Compound 1
[14] = test system: KARPAS-299; assay: as above; details: combination with Compound 1
Method: as §1, §2, §3, §4, §5, §6, §7

[15] = test system: HBL-1; assay: as above; details: combination with Compound 1, 72 h
[16] = test system: RL; assay: as above; details: combination with Compound 1, 72 h
[17] = test system: RPMI-8226; assay: as above; details: combination with Compound 1
[18] = test system: SU-DHL-4-epst; assay: as above; details: combination with Compound 1, 72 h
[19] = test system: WSU-NHL; assay: as above; details: combination with Compound 1, 72 h
[20] = test system: OCI-Ly3; assay: as above; details: combination with Compound 1; OCI-Ly3; 72 h
[21] = test system: SU-DHL-10-epst; assay: as above; details: combination with Compound 1, 72 h

CS(=O)(=O)N1CCN(Cc2cc3nc(-c4cccc5[nH]ncc45)nc(N4CCOCC4)c3s2)CC1 [GDC-0941, 2-(1H-indazol-4-yl)-6-((4-(methylsulfonyl)piperazin-1-yl)methyl)-4-morpholinothieno[3,2-d]pyrimidine]
CI50 growth inhibition [1]: S (S=0.01 to <0.5) | CI50 inhibition [1]: S (S=0.01 to <0.5) | Synergy Score growth inhibition [1]: A1 (A1=0.0001 to <1) | Synergy Score inhibition [1]: A1 (A1=0.0001 to <1) | CI50 growth inhibition [2]: T (T=0.5 to <0.7) | CI50 inhibition [2]: W (W=≥1) | Synergy Score growth inhibition [2]: A1 (A1=0.0001 to <1) | Synergy Score inhibition [2]: A1 (A1=0.0001 to <1) | CI50 growth inhibition [3]: T (T=0.5 to <0.7) | CI50 inhibition [3]: T (T=0.5 to <0.7) | Synergy Score growth inhibition [3]: A3 (A3=>3) | Synergy Score inhibition [3]: A2 (A2=1 to <3) | CI50 growth inhibition [4]: S (S=0.01 to <0.5) | CI50 inhibition [4]: T (T=0.5 to <0.7) | Synergy Score growth inhibition [4]: A2 (A2=1 to <3) | Synergy Score inhibition [4]: A2 (A2=1 to <3) | CI50 growth inhibition [5]: U (U=0.7 to <1) | CI50 inhibition [5]: W (W=≥1) | Synergy Score growth inhibition [5]: A3 (A3=>3) | Synergy Score inhibition [5]: A2 (A2=1 to <3) | CI50 growth inhibition [6]: W (W=≥1) | CI50 inhibition [6]: W (W=≥1) | Synergy Score growth inhibition [6]: A1 (A1=0.0001 to <1) | Synergy Score inhibition [6]: A1 (A1=0.0001 to <1) | CI50 growth inhibition [7]: T (T=0.5 to <0.7) | CI50 inhibition [7]: S (S=0.01 to <0.5) | Synergy Score growth inhibition [7]: A3 (A3=>3) | Synergy Score inhibition [7]: A2 (A2=1 to <3) | CI50 inhibition [8]: W (W=≥1) | Synergy Score growth inhibition [8]: A3 (A3=>3) | Synergy Score inhibition [8]: A1 (A1=0.0001 to <1) | CI50 growth inhibition [9]: U (U=0.7 to <1) | CI50 growth inhibition [10]: U (U=0.7 to <1) | CI50 inhibition [10]: W (W=≥1) | Synergy Score growth inhibition [10]: A1 (A1=0.0001 to <1) | Synergy Score inhibition [10]: A1 (A1=0.0001 to <1) | CI50 growth inhibition [11]: S (S=0.01 to <0.5) | CI50 inhibition [11]: U (U=0.7 to <1) | Synergy Score growth inhibition [11]: A2 (A2=1 to <3) | Synergy Score inhibition [11]: A1 (A1=0.0001 to <1) | CI50 growth inhibition [12]: T (T=0.5 to <0.7) | CI50 inhibition [12]: U (U=0.7 to <1) | Synergy Score growth inhibition [12]: A1 (A1=0.0001 to <1) | Synergy Score inhibition [12]: A1 (A1=0.0001 to <1) | CI50 growth inhibition [13]: T (T=0.5 to <0.7) | CI50 inhibition [13]: T (T=0.5 to <0.7) | Synergy Score growth inhibition [13]: A3 (A3=>3) | Synergy Score inhibition [13]: A2 (A2=1 to <3) | CI50 growth inhibition [14]: W (W=≥1) | Synergy Score growth inhibition [14]: A1 (A1=0.0001 to <1) | Synergy Score inhibition [14]: A1 (A1=0.0001 to <1) | CI50 growth inhibition [15]: U (U=0.7 to <1) | CI50 inhibition [15]: W (W=≥1) | Synergy Score growth inhibition [15]: A2 (A2=1 to <3) | Synergy Score inhibition [15]: A1 (A1=0.0001 to <1) | CI50 growth inhibition [16]: U (U=0.7 to <1) | CI50 inhibition [16]: U (U=0.7 to <1) | Synergy Score growth inhibition [16]: A2 (A2=1 to <3) | Synergy Score inhibition [16]: A2 (A2=1 to <3) | CI50 growth inhibition [17]: U (U=0.7 to <1) | CI50 inhibition [17]: W (W=≥1) | Synergy Score growth inhibition [17]: A2 (A2=1 to <3) | Synergy Score inhibition [17]: A1 (A1=0.0001 to <1) | CI50 growth inhibition [18]: T (T=0.5 to <0.7) | CI50 inhibition [18]: T (T=0.5 to <0.7) | Synergy Score growth inhibition [18]: A3 (A3=>3) | Synergy Score inhibition [18]: A2 (A2=1 to <3) | CI50 growth inhibition [19]: U (U=0.7 to <1) | CI50 inhibition [19]: T (T=0.5 to <0.7) | Synergy Score growth inhibition [19]: A3 (A3=>3) | Synergy Score inhibition [19]: A2 (A2=1 to <3) | CI50 growth inhibition [20]: U (U=0.7 to <1) | CI50 inhibition [20]: W (W=≥1) | Synergy Score growth inhibition [20]: A1 (A1=0.0001 to <1) | Synergy Score inhibition [20]: A1 (A1=0.0001 to <1) | CI50 growth inhibition [21]: S (S=0.01 to <0.5) | CI50 inhibition [21]: T (T=0.5 to <0.7) | Synergy Score growth inhibition [21]: A3 (A3=>3) | Synergy Score inhibition [21]: A2 (A2=1 to <3)
